In patent US20060040984A1, “Novel piperidine derivatives for use in the treatment of chemokine medicated disease states” (priority 2002, published 2006):

Biological target: T1, CCR3 (Homo sapiens, UniProt P51677)
T1 construct: Human eosinophils were isolated from EDTA anticoagulated peripheral blood; endogenous in cells; host or cells: human peripheral blood eosinophils
T1 sequence (P51677 1-355): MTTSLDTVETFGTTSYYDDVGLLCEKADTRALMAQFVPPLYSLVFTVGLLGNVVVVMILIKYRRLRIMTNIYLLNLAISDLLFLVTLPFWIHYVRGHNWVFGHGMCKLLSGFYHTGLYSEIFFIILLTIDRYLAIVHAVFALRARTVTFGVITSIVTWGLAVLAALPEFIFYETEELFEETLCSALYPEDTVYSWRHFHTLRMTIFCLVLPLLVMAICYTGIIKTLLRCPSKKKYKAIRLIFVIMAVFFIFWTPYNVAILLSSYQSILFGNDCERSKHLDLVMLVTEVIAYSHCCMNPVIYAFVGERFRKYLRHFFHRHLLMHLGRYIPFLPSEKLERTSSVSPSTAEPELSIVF
Experiment: Human eosinophil chemotaxis (eotaxin mediated)
Format: cell-based
Details: read-out: % inhibition at 1 μM, 1 μM compound, human eosinophils
Procedure: Human Eosinophil Chemotaxis
Human eosinophils were isolated from EDTA anticoagulated peripheral blood as previously described (Hansel et al., J. Immunol. Methods, 1991, 145, 105-110). The cells were resuspended at 10×10^6 mL-1 in RPMI containing 200 IU/mL penicillin, 200 μg/mL streptomycin sulfate and supplemented with 10% HIFCS, at room temperature.
Eosinophils (700 μl) were pre-incubated for 15 mins at 37° C. with 7 μl of either vehicle or compound (100× required final concentration in 10% DMSO). […] The filter was then placed over the wells and 25 μl of eosinophil suspension were added to the top of the filter. The plate was incubated for 1 hr at 37° C. in a humidified incubator with a 95% air/5% CO2, atmosphere to allow chemotaxis.
The medium, containing cells that had not migrated, was carefully aspirated from above the filter and discarded. The filter was washed once with phosphate buffered saline (PBS) containing 5 mM EDTA to remove any adherent cells. Cells that had migrated through the filter were pelleted by centrifugation (300×g for 5 mins at room temperature) and the filter removed and the supernatant transferred to each well of a 96-well plate (Costar). The pelleted cells were lysed by the addition of 28 μl of PBS containing 0.5% Triton ×100 followed by two cycles of freeze/thawing. The cell lysate was then added to the supernatant. The number of eosinophils migrating was quantified according to the method of Strath et al., J. Immunol. Methods, 1985, 83, 209 by measuring eosinophil peroxidase activity in the supernatant.

inhibition at 1 µM | SMILES
87% | Cc1ccc(C(C(=O)O)N2CCC(CN3CCC(Oc4ccc(Cl)cc4C)CC3)CC2)cc1 (stereo not drawn) [Example 13, 4-[[4-(4-Chloro-2-methylphenoxy)-1-piperidinyl]methyl]-α-(4-methylphenyl)-1-piperidineacetic acid]
108% | COc1ccccc1C(C(=O)O)N1CCC(CN2CCC(Oc3ccc(Cl)cc3C)CC2)CC1 (stereo not drawn) [Example 10, 4-[[4-(4-Chloro-2-methylphenoxy)-1-piperidinyl]methyl]-α-(2-methoxyphenyl)-1-piperidineacetic acid]
90% | COc1ccccc1C(C(=O)O)N1CCC(CN2CCC(Oc3ccc(Cl)c(Cl)c3)CC2)CC1 (stereo not drawn) [Example 4, 4-[[4-(3,4-Dichlorophenoxy)-1-piperidinyl]methyl]-α-(2-methoxyphenyl)-1-piperidineacetic acid]

Biological target: T2, human H1 receptor (Homo sapiens, UniProt P35367)
T2 construct: purchased Euroscreen SA, Brussels, Belgium ES-390-M; host or cells: recombinant CHO-K1 cells (membranes)
Experiment: Histamine H1 receptor binding, displacement of [3H]-pyrilamine
Details: 1 nM [3H]-pyrilamine; membranes of recombinant CHO-K1 cells expressing human H1 receptor; read-out: H1 pKi/[1328_S] (converted)

T2 sequence (P35367 whole entry): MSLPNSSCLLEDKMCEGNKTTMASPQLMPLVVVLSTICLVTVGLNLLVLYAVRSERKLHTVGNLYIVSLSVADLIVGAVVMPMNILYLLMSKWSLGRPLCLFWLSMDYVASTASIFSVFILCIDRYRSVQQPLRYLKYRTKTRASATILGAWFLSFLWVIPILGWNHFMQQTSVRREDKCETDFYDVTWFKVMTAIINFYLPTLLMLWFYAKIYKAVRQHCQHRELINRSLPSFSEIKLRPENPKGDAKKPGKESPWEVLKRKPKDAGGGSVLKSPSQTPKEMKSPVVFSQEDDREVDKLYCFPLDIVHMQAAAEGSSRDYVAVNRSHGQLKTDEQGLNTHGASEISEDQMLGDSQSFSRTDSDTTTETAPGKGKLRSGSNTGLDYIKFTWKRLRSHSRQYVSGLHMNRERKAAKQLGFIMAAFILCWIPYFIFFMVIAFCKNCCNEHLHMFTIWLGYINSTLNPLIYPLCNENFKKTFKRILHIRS

Ki | SMILES
0.01 µM | COC(=O)c1ccccc1CN1CCC(CN2CCC(Oc3ccc(Cl)c(Cl)c3)CC2)CC1 [Example 42, methyl 2-[(4-{[4-(3,4-dichlorophenoxy)piperidin-1-yl]methyl}piperidin-1-yl)methyl]benzoate]
0.2 µM | Cc1c(Cl)ccc(OC2CCN(CC3CCN(CC(=O)O)CC3)CC2)c1Cl [Example 78, 4-[[4-(2,4-Dichloro-3-methylphenoxy)-1-piperidinyl]methyl]-1-piperidineacetic acid]
0.0158 µM | Cc1ccc(C(C(=O)O)N2CCC(O)(CN3CCC(Oc4ccc(Cl)c(Cl)c4)CC3)CC2)cc1 (stereo not drawn) [Example 18, 4-[[4-(3,4-Dichlorophenoxy)-1-piperidinyl]methyl]-4-hydroxy-α-(4-methylphenyl)-1-piperidineacetic acid]
0.126 µM | O=C(O)CN1CCC(CN2CCC(Oc3ccc(Cl)c(Cl)c3)CC2)CC1 [Example 77, 4-[[4-(3,4-dichlorophenoxy)-1-piperidinyl]methyl]-1-piperidineacetic acid]
0.126 µM | COC(=O)CN1CCC(CN2CCC(Oc3ccc(Cl)cc3C)CC2)CC1 [Example 69, Methyl-4-[[4-(4-chloro-2-methylphenoxy)-1-piperidinyl]methyl]-1-piperidineacetate]
0.01 µM | O=C(O)C(c1ccccc1)N1CCC(O)(CN2CCC(Oc3ccc(Cl)c(Cl)c3)CC2)CC1 (stereo not drawn) [Example 17, 4-[[4-(3,4-Dichlorophenoxy)-1-piperidinyl]methyl]-4-hydroxy-α-phenyl-1-piperidineacetic acid]
0.00794 µM | COc1ccccc1C(C(=O)O)N1CCC(O)(CN2CCC(Oc3ccc(Cl)c(Cl)c3)CC2)CC1 (stereo not drawn) [Example 19, 4-[[4-(3,4-Dichlorophenoxy)-1-piperidinyl]methyl]-4-hydroxy-α-(2-methoxyphenyl)-1-piperidineacetic acid]
0.02 µM | O=S(=O)(NCCCN1CCC(CN2CCC(Oc3ccc(Cl)c(Cl)c3)CC2)CC1)C(F)(F)F [Example 103, N-[3-[4-[[4-(3,4-Dichlorophenoxy)-1-piperidinyl]methyl]-1-piperidinyl]propyl]-1,1,1-trifluoro-methanesulfonamide]
0.1 µM | O=C(O)CN1CCC(O)(CN2CCC(Oc3ccc(Cl)c(Cl)c3)CC2)CC1 [Example 82, 4-[[4-(3,4-Dichlorophenoxy)-1-piperidinyl]methyl]-4-hydroxy-1-piperidineacetic acid]
0.0398 µM | Clc1ccc(OC2CCN(CC3CCN(Cc4nn[nH]n4)CC3)CC2)cc1Cl [Example 100, 4-(3,4-dichlorophenoxy)-1-[[1-(2H-tetrazol-5-ylmethyl)-4-piperidinyl]methyl]-piperidine]
0.2 µM | C[C@@H](C(=O)O)N1CCC(CN2CCC(Oc3ccc(Cl)c(Cl)c3)CC2)CC1 [Example 84, (2S)-2-(4-{[4-(3,4-Dichlorophenoxy)piperidin-1-yl]methyl}piperidin-1-yl)propanoic acid]

Further lines, the compound ahead of its results:

SMILES | Ki
COc1ncc(C(C(=O)O)N2CCC(CN3CCC(Oc4ccc(Cl)c(Cl)c4)CC3)CC2)c(OC)n1 (stereo not drawn) [Example 12, α-[4-[[4-(3,4-Dichlorophenoxy)-1-piperidinyl]methyl]-1-piperidinyl]-2,4-dimethoxy-5-pyrimidineacetic acid] | 0.2 µM
COc1ccccc1C(C(=O)O)N1CCC(CN2CCC(Oc3ccc(Cl)c(C)c3Cl)CC2)CC1 (stereo not drawn) [Example 7, 4-[[4-(2,4-Dichloro-3-methylphenoxy)-1-piperidinyl]methyl]-α-(2-methoxyphenyl)-1-piperidineacetic acid] | 0.0794 µM
O=C(O)C(c1ccc(F)cc1)N1CCC(CN2CCC(Oc3ccc(Cl)c(Cl)c3)CC2)CC1 (stereo not drawn) [Example 3, 4-[[4-(3,4-Dichlorophenoxy)-1-piperidinyl]methyl]-α-(4-fluorophenyl)-1-piperidineacetic acid] | 0.0398 µM
Cc1ccccc1C(C(=O)O)N1CCC(CN2CCC(Oc3ccc(Cl)c(Cl)c3)CC2)CC1 (stereo not drawn) [Example 5, 4-[[4-(3,4-Dichlorophenoxy)-1-piperidinyl]methyl]-α-(2-methylphenyl)-1-piperidineacetic acid] | 0.0794 µM
Cc1ccc(C(C(=O)O)N2CCC(CN3CCC(Oc4ccc(Cl)c(Cl)c4)CC3)CC2)cc1 (stereo not drawn) [Example 6, 4-[[4-(3,4-Dichlorophenoxy)-1-piperidinyl]methyl]-α-(4-methylphenyl)-1-piperidineacetic acid] | 0.02 µM
Cc1ccccc1C(C(=O)O)N1CCC(CN2CCC(Oc3ccc(Cl)c(C)c3Cl)CC2)CC1 (stereo not drawn) [Example 8, 4-[[4-(2,4-Dichloro-3-methylphenoxy)-1-piperidinyl]methyl]-α-(2-methylphenyl)-1-piperidineacetic acid] | 0.0501 µM
Cc1ccc(C(C(=O)O)N2CCC(CN3CCC(Oc4ccc(Cl)cc4C)CC3)CC2)cc1 (stereo not drawn) [Example 13, 4-[[4-(4-Chloro-2-methylphenoxy)-1-piperidinyl]methyl]-α-(4-methylphenyl)-1-piperidineacetic acid] | 0.0251 µM
Cc1cc(Cl)ccc1OC1CCN(CC2CCN(C(C(=O)O)c3ccccc3C)CC2)CC1 (stereo not drawn) [Example 11, 4-[[4-(4-Chloro-2-methylphenoxy)-1-piperidinyl]methyl]-α-(2-methylphenyl)-1-piperidineacetic acid] | 0.158 µM
COc1ccccc1C(C(=O)O)N1CCC(CN2CCC(Oc3ccc(Cl)cc3C)CC2)CC1 (stereo not drawn) [Example 10, 4-[[4-(4-Chloro-2-methylphenoxy)-1-piperidinyl]methyl]-α-(2-methoxyphenyl)-1-piperidineacetic acid] | 0.251 µM
Cc1ccc(C(C(=O)O)N2CCC(CN3CCC(Oc4ccc(Cl)c(C)c4Cl)CC3)CC2)cc1 (stereo not drawn) [Example 9, 4-[[4-(2,4-Dichloro-3-methylphenoxy)-1-piperidinyl]methyl]-α-(4-methylphenyl)-1-piperidineacetic acid] | 0.0316 µM
CC(=O)Nc1cccc(C(C(=O)O)N2CCC(CN3CCC(Oc4ccc(Cl)c(Cl)c4)CC3)CC2)c1 (stereo not drawn) [Example 14, α-[3-(Acetylamino)phenyl]-4-[[4-(3,4-dichlorophenoxy)-1-piperidinyl]methyl]-1-piperidineacetic acid] | 0.0251 µM
COc1ccccc1C(C(=O)O)N1CCC(CN2CCC(Oc3ccc(Cl)c(Cl)c3)CC2)CC1 (stereo not drawn) [Example 4, 4-[[4-(3,4-Dichlorophenoxy)-1-piperidinyl]methyl]-α-(2-methoxyphenyl)-1-piperidineacetic acid] | 0.1 µM
Cc1c(Cl)ccc(OC2CCN(CC3CCN(C(C(=O)O)c4ccccc4)CC3)CC2)c1Cl (stereo not drawn) [Example 2, 4-[[4-(2,4-Dichloro-3-methylphenoxy)-1-piperidinyl]methyl]-α-phenyl-1-piperidineacetic acid] | 0.0316 µM
Cc1c(Cl)ccc(OC2CCN(CC3CCN(C(C(=O)O)c4ccc(F)cc4)CC3)CC2)c1Cl (stereo not drawn) [Example 15, 4-[[4-(2,4-Dichloro-3-methylphenoxy)-1-piperidinyl]methyl]-α-(4-fluorophenyl)-1-piperidineacetic acid] | 0.0251 µM
